{"source": "patent US20230167155A1", "about": "“COMPOSITIONS AND METHODS” (KING'S COLLEGE LONDON, priority 2020, published 2023)", "key": {"ApoE−/− mice [1]": {"tested_on": "ApoE−/− mice", "conditions": "22 week old animals, daily treatment for 6 weeks, clinically relevant doses; cited from earlier work"}, "[2]": {"tested_on": "patients with stable atherosclerotic cardiovascular disease", "conditions": "addition to aspirin; cited from earlier work"}, "PAR1": {"molecular_target": "T1, PAR1 (Homo sapiens, UniProt P25116)", "T1 sequence (P25116 22-425)": "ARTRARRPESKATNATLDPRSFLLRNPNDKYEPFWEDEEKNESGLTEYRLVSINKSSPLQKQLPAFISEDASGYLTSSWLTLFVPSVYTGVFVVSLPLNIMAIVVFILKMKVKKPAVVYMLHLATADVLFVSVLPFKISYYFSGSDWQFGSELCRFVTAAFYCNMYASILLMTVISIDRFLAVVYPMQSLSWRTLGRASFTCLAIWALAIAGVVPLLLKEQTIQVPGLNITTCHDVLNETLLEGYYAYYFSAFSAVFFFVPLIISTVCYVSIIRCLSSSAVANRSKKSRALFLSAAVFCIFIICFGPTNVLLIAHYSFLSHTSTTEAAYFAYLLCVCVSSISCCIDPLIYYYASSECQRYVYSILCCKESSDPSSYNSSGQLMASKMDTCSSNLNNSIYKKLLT", "parameters": "host or cells: patients", "conditions": "patients with stable atherosclerosis; cited from earlier work"}, "ApoE−/− mice [3]": {"tested_on": "ApoE−/− mice", "assay": "Regression of established atheroma, weekly IV injections (Oil Red O en face, aortic root)", "format": "in vivo, mouse", "procedure": "For all atherosclerosis work, male ApoE−/− mice, from the age of 6-weeks, were fed with a high fat diet (HFD) consisting 35 kcal % fat, 1.25% cholesterol, and 0.5% cholic acid (Special Diet Services, Essex UK). Aortas were transplanted 2 weeks after starting the HFD, using a sleeve anastomosis technique described previously^11. Briefly, a 5 mm of the segment of the infrarenal donor aorta, flushed with 300 μl of saline containing 50 U of heparin, was transplanted into ApoE−/− recipient abdomen aortas (N=6 per group). Blood flow was confirmed by direct inspection after removal of the clamps. Mice were fed a HFD for 6-12 weeks post-transplantation before the experiment was terminated (Suppl FIG. 1A). To assess prevention of atheroma, mice (n=6 per group) received a single injection of PTL060 or controls by tail vein, and the experiments terminated 1-3 weeks later (Suppl FIG. 1B). For regression experiments, baseline groups (n=6) were fed a HFD to the age of 22 weeks before the mice were sacrificed. Experimental or control groups (n=3-6 per group) received weekly injections by tail vein for 3-6 weeks, beginning at age of 22 weeks before the experiments were terminated when mice were 25-28 weeks old (Suppl FIG. 1C).\nAtherosclerotic lesions were evaluated as previously described^11. Simply, the entire length of the aorta was perfused with PBS, dissected using a dissecting microscope, longitudinally opened and stained with Oil Red O (ORO) solution (Sigma, UK) for 30 minutes, before being photographed with a digital camera (DSC-W320, Sony, Japan). The total aortic area and lesional area were measured by using Image J. Aortas from every animal were assessed. To assess lesions in the aortic sinus, hearts were embedded in paraffin, sectioned through the aortic root and incubated with elastin/van Gieson stain using the Accustain™ Elastin Stain kit (Sigma). Sections were examined on an Olympus U-ULH optical microscope (Olympus Optical Co. Ltd, Tokyo, Japan). Atheromatous lesional and total aortic root area was determined using Image-Pro Plus TM software version 4.0 (Media Cybernetics, Silver Spring, USA). At least three random sections were examined from each mouse in all groups."}, "TNFα, IFNγ, MIF and CCL2": {"tested_on": "TNFα, IFNγ, MIF and CCL2", "assay": "Plasma cytokines and chemokines by ELISA", "format": "in vivo, mouse", "conditions": "HFD, weekly IV for 6 weeks, equimolar to PTL060 10 μg/g", "procedure": "Anticoagulated whole blood (EDTA 30 mM pH8) was separated into plasma and cells by centrifugation (14,000 g for 10 mins). Plasma TNFα, IFN-γ, MIF and CCL2 were detected using separate specific ELISA kits (R&D Systems, Abingdon, UK) according to the manufacturers' instructions. Total cholesterol, high-density lipoprotein and low-density lipoprotein were determined using kits from Cell Biolabs, and Tryglycerides with a kit from Abcam, (both Cambridge, UK) according to the manufacturer's protocol. Thrombin clotting times were measured in 3.2% trisodium citrated plasma according to the protocol of Ignjatovic^16. Briefly, 100 μl mouse plasma was incubated with 2.5 U of human thrombin in a total volume of 300 μl (Enzyme Research Laboratories (ERL), Swansea, UK) at 37° C., and the time for a clot to form was measured (n=6 per group). For some experiments plasma was further centrifuged (20,000 g for 10 mins) to minimise the presence of extracellular vesicles.\nFIG. 18: Illustrating the systemic proinflammatory state that accompanies development of atherosclerosis in ApoE^−/− mice fed a high fat diet, and the impact of PTL032 on that inflammation, compared to PTL060 and controls. Cytokines (interferon-gamma TNFalpha) and chemokines (macrophage migration inhibitory factor, MIF and CCL2) measured by ELISA of plasma samples harvested from mice at the times indicated. HFD=high fat diet. […]"}, "MIF": {"tested_on": "MIF", "assay": "Vessel wall chemokine (MIF, CCL2) expression after IV injection, immunofluorescence", "format": "in vivo, mouse", "conditions": "single IV injection, PTL060 or equimolar dose", "procedure": "Immunohistology of frozen cross sections were prepared and examined as previously described^11. Briefly, isolated tissues were snap-frozen and embedded in OCT compound (VWR International, Dorset, UK), sectioned at 5 μm thickness and fixed in methanol at −20° C. Frozen sections were immersed in 1% bovine serum albumin-phosphate-buffered saline (BSA-PBS) for 30 minutes and then incubated overnight at 4° C. with one or more of the following antibodies: rabbit polyclonal antibody to CD68, iNOs, CD206, TNFα, MIF, CCR7 ABCA1 (all from Abcam, Cambridge, UK), or hirudin (Biobyt, Cambridge, UK) or CCL2 (Lifespan BioScience, Inc., WA 98121, USA); goat polyclonal antibody to CD31 (Santa Cruz Biotechnology, Texas 75220, USA); rat anti-mouse CD68, CD11b (Serotec, Oxford, United Kingdom), CD31, IFNγ (BD Bioscience Pharmingen, Oxford, United Kingdom), Ly-6G (BioLegend, London, UK), IL-10 (Abcam) or biotinylated anti-HLL (RICS-2)^14; mouse anti-CCR2 (Abcam). […] Quantification of staining was achieved by expressing the area of positive staining as a ratio of the total lesion area, calculated using Image-Pro Plus TM, version 4.0. All quantification was performed by members of the team blinded to the identity of the sections. […] To detect macrophage-derived foam cells, frozen sections of aortic sinus were analysed by a combination of ORO staining and CD68 immunostaining. […]"}}}
{"compound": "O=C(NC[C@H]1CN(c2ccc(N3CCOCC3=O)cc2)C(=O)O1)c1ccc(Cl)s1", "note": "[rivaroxaban]", "values": [{"measurement": "atheroma burden reduced by", "setting": "ApoE−/− mice [1]", "result": 25, "unit": "%"}, {"measurement": "deaths, strokes and myocardial infarction", "setting": "[2]", "result": "fewer deaths, strokes and myocardial infarction"}]}
{"compound": "CCOC(=O)N[C@@H]1CC[C@@H]2[C@@H](C1)C[C@H]1C(=O)O[C@H](C)[C@H]1[C@H]2/C=C/c1ccc(-c2cccc(F)c2)cn1", "note": "[vorapaxar]", "values": [{"measurement": "risk of myocardial infarction", "setting": "PAR1", "result": "reduce the risk of myocardial infarction"}]}
{"compound": "[Myr2]-KSSKSPSKKDDKKPGDC(S—S—CH2-CH2-Phe-Cha-Cha-Arg-Lys-Pro-Asn-Asp-Lys-NH2)NH2 [PTL032]", "values": [{"measurement": "animals with atherosclerotic plaques essentially completely eliminated", "setting": "ApoE−/− mice [3]; HFD 16 weeks, then PTL032 7 μg/g weekly IV for 6 weeks", "result": "4 out of the 6"}, {"measurement": "regression of atherosclerosis in direct comparison with PTL060", "setting": "ApoE−/− mice [3]; equimolar doses (PTL032 7 μg/g, PTL060 10 μg/g), weekly IV 6 weeks", "result": "considerably better regression of atherosclerosis than PTL060"}, {"measurement": "plasma chemokines and cytokines (IFNγ, TNFα, MIF, CCL2)", "setting": "TNFα, IFNγ, MIF and CCL2", "result": "suppression of important chemokines and cytokines, almost back to levels seen in very young mice"}]}
{"compound": "bivalirudin", "values": [{"measurement": "atheroma burden after weekly injections", "setting": "ApoE−/− mice [3]; HFD from age 6 to 22 weeks, then weekly IV for 6 weeks, PTL060 10 μg/g or equimolar doses of controls", "result": "developed increasing atheroma burden equivalent to that seen in saline control mice"}, {"measurement": "suppression of vessel wall chemokine (MIF) expression", "setting": "MIF", "result": "not"}]}
